Earlier results, collected in PubChem BioAssay AID1259409 (Chemical Carcinogenesis Research Information System (CCRIS), 2018).

Tested on: rodent chemically induced tumor inhibition, incidence and multiplicity
Experiment: CCRIS tumor inhibitor studies
Description: The CCRIS database contains chemical records with carcinogenicity, mutagenicity, tumor promotion, and tumor inhibition test results. It was developed by the National Cancer Institute (NCI). Data are derived from studies cited in primary journals, current awareness tools, NCI reports, and other sources. Test results have been reviewed by experts in carcinogenesis and mutagenesis.
CCRIS provides historical information from the years 1985 - 2011. It is no longer updated.
This is an archive assay for CCRIS tumor inhibitor studies.

O=C(OC[C@@H]1O[C@H](OC(=O)c2cc(O)c(O)c(OC(=O)c3cc(O)c(O)c(O)c3)c2)[C@@H](OC(=O)c2cc(O)c(O)c(OC(=O)c3cc(O)c(O)c(O)c3)c2)[C@H](OC(=O)c2cc(O)c(O)c(OC(=O)c3cc(O)c(O)c(O)c3)c2)[C@H]1OC(=O)c1cc(O)c(O)c(OC(=O)c2cc(O)c(O)c(O)c2)c1)c1cc(O)c(O)c(OC(=O)c2cc(O)c(O)c(O)c2)c1
tumour outcome (control, treated, inhibition, significance) (Carcinogen: 7,12-DIMETHYLBENZ[A]ANTHRACENE, 57-97-6, Dose [Inhibitor]: 0, 17 MG 2/WK FOR 20 WK APPLIED 20 MIN PRIOR TO EACH PROMOTER DOSE (STUDY DURATION: 22 WK), Route [Inhibitor]: DERMAL, Species: (36,?)/(36,?), Strain/Sex: CF-1/FEMALE, Target Tissue: Type of Lesion: SKIN: PAPILLOMA, Dose [Carcinogen]: 25.6 UG IN 0.2 ML ACETONE ONCE, Promoter: 12-O-TETRADECANOYLPHORBOL-13-ACETATE, 16561-29-8): 90%, 65%, 28%, not calculated
tumour outcome (control, treated, inhibition, significance) (Carcinogen: 7,12-DIMETHYLBENZ[A]ANTHRACENE, 57-97-6, Dose [Inhibitor]: 0, 20 UMOL IN 0.4 ML ACETONE 20 MIN PRIOR TO EACH PROMOTER DOSE (STUDY DURATION: 47 WK), Route [Inhibitor]: DERMAL, Species: MOUSE, Strain/Sex: CF-1/FEMALE, Target Tissue: Type of Lesion: SKIN: CARCINOMA, Dose [Carcinogen]: 100 NMOL IN 0.2 ML ACETONE ONCE): 66%, 0%, 100%, not calculated
tumour outcome (control, treated, inhibition, significance) (Carcinogen: 7,12-DIMETHYLBENZ[A]ANTHRACENE, 57-97-6, Dose [Inhibitor]: 0, 20 UMOL IN 0.4 ML ACETONE 20 MIN PRIOR TO EACH PROMOTER DOSE (STUDY DURATION: 47 WK), Route [Inhibitor]: DERMAL, Species: MOUSE, Strain/Sex: CF-1/FEMALE, Target Tissue: Type of Lesion: SKIN: PAPILLOMA, Dose [Carcinogen]: 100 NMOL IN 0.2 ML ACETONE ONCE): 94%, 23%, 76%, not calculated
tumour outcome (control, treated, inhibition, significance) (Carcinogen: 7,12-DIMETHYLBENZ[A]ANTHRACENE, 57-97-6, Dose [Inhibitor]: 0, 34 MG 2/WK FOR 2 WK APPLIED 20 MIN PRIOR TO EACH TPA DOSE (STUDY DURATION: 22 WK), Route [Inhibitor]: DERMAL, Species: MOUSE, Strain/Sex: SENCAR/FEMALE, Target Tissue: Type of Lesion: SKIN: PAPILLOMA, Dose [Carcinogen]: 6.4 UG IN 0.2 ML ACETONE ONCE, Promoter: 12-O-TETRADECANOYLPHORBOL-13-ACETATE, 16561-29-8, MEZEREIN, 34807-41-5, Promoter: 12-O-TETRADECANOYLPHORBOL-13-ACETATE, 16561-29-8, MEZEREIN, 34807-41-5): 90%, 96%, -7%, not calculated
tumour outcome (control, treated, inhibition, significance) (Carcinogen: 7,12-DIMETHYLBENZ[A]ANTHRACENE, 57-97-6, Dose [Inhibitor]: 0, 34 MG 2/WK FOR 18 WK APPLIED 20 MIN PRIOR TO EACH MEZEREIN DOSE (STUDY DURATION: 22 WK), Route [Inhibitor]: DERMAL, Species: MOUSE, Strain/Sex: SENCAR/FEMALE, Target Tissue: Type of Lesion: SKIN: PAPILLOMA, Dose [Carcinogen]: 6.4 UG IN 0.2 ML ACETONE ONCE, Promoter: 12-O-TETRADECANOYLPHORBOL-13-ACETATE, 16561-29-8, MEZEREIN, 34807-41-5, Promoter: 12-O-TETRADECANOYLPHORBOL-13-ACETATE, 16561-29-8, MEZEREIN, 34807-41-5): 90%, 25%, 72%, not calculated
tumour outcome (control, treated, inhibition, significance) (Carcinogen: (+/-)-7BETA,8ALPHA-DIHYDROXY-9ALPHA,10ALPHA-EPOXY-7,8,9,10- TETRAHYDROBENZO[A]PYRENE, 58917-67-2, Dose [Inhibitor]: 3000 NMOL IN 0.2 ML ACETONE 1/D FOR 7 D (STUDY DURATION: 18 WK), Route [Inhibitor]: DERMAL, Species: MOUSE, Strain/Sex: SENCAR/FEMALE, Target Tissue: Type of Lesion: SKIN: TUMOR, Dose [Carcinogen]: 200 NMOL IN 0.2 ML ACETONE ONCE 30 MIN POST LAST INHIBITOR DOSE, Promoter: 12-O-TETRADECANOYLPHORBOL-13-ACETATE, 16561-29-8): 75%, 60%, 20%, not significant
tumour outcome (control, treated, inhibition, significance) (Carcinogen: BENZO[A]PYRENE, 50-32-8, Dose [Inhibitor]: 1% AQUEOUS SOLUTION 3/WK FOR A TOTAL OF 80 APPLICATIONS FOLLOWED BY AT LEAST 365 D OBSERVATION PERIOD (STUDY DURATION: 5, Route [Inhibitor]: DERMAL, Species: MOUSE, Strain/Sex: CD-1/MALE, FEMALE, Target Tissue: Type of Lesion: SKIN: CARCINOMA, SQUAMOUS CELL PAPILLOMA, SEBACEOUS ADENOMA, BASAL CELL TUMOR, KERATOACANTHOMA, Dose [Carcinogen]: 0.53-0.6 MG ONCE PRIOR TO START OF AGENT TREATMENT, Promoter: NONE USED): 17/50 (34%), 15/50 (30%), 12%, not significant
tumour outcome (control, treated, inhibition, significance) (Carcinogen: BENZO[A]PYRENE, 50-32-8, Dose [Inhibitor]: 1% IN DIET BEGINNING 45 D PRIOR TO CARCINOGEN (STUDY DURATION: 36 WK), Route [Inhibitor]: ORAL, Species: MOUSE, Strain/Sex: SENCAR/FEMALE, Target Tissue: Type of Lesion: FORESTOMACH: PAPILLOMA, Dose [Carcinogen]: 100 MG/KG IN 0.2 ML CORN OIL 2/WK FOR 4 WK, Promoter: NONE USED): 27/30 (90%), 19/30 (63%), 30%, not calculated
tumour outcome (control, treated, inhibition, significance) (Carcinogen: BENZO[A]PYRENE, 50-32-8, Dose [Inhibitor]: 1% IN DIET BEGINNING 45 D PRIOR TO CARCINOGEN (STUDY DURATION: 36 WK), Route [Inhibitor]: ORAL, Species: MOUSE, Strain/Sex: SENCAR/FEMALE, Target Tissue: Type of Lesion: LUNG: ADENOMA, Dose [Carcinogen]: 100 MG/KG IN 0.2 ML CORN OIL ONCE, Promoter: NONE USED): 27/30 (90%), 18/30 (60%), 33%, not calculated
tumour outcome (control, treated, inhibition, significance) (Carcinogen: DIMETHYLBENZ[A]ANTHRACENE, 57-97-6, Dose [Inhibitor]: 1% IN DIET BEGINNING 45 D PRIOR TO CARCINOGEN DOSE AND CONTINUED FOR 10 D POST CARCINOGEN (STUDY DURATION: 16 WK), Route [Inhibitor]: ORAL, Species: MOUSE, Strain/Sex: SENCAR/FEMALE, Target Tissue: Type of Lesion: SKIN: PAPILLOMA, Dose [Carcinogen]: 10 UG IN 0.2 ML ACETONE ONCE, Promoter: TPA, 16561-29-8): 30/30 (100%), 30/30 (100%), 0%, not calculated
tumour outcome (control, treated, inhibition, significance) (Carcinogen: UV IRRADIATION, Dose [Inhibitor]: 0, 200 UG IN 200 µL ACETONE 3/WK FOR DURATION OF STUDY BEGINNING 2 WK PRIOR TO UV IRRADIATION (STUDY DURATION: 29 WK), Route [Inhibitor]: DERMAL, Species: MOUSE, Strain/Sex: BALB/CANNTACFBR/FEMALE, Target Tissue: Type of Lesion: SKIN: TUMOR, Dose [Carcinogen]: 6.94 J/M2/SEC 30 MIN/D 5 D/WK FOR 17.5 WK, Promoter: NONE USED): 75%, 42%, 44%, p=0.028
